In patent US20130071931A1, “PROCESS FOR HEPATIC DIFFERENTIATION FROM INDUCED HEPATIC STEM CELLS, AND INDUCED HEPATIC PROGENITOR CELLS DIFFERENTIATED THEREBY” (NATIONAL CANCER CENTER, priority 2011, published 2013):
Where a name gives a salt, the structure may show the parent alone.

How the values were obtained:
[1] = tested on: human induced hepatic stem cells NGC1-1; test: Quantitative RT-PCR, differentiation with TGF-β signaling inhibitors (Example 11); type: cell-based; conditions: cell samples Nos. 1141-1145: 0.5 μM inhibitor in ReproStem + 10 ng/mL aFGF, no feeder cells, Matrigel, 7 days after seeding; No. 1133 taken as 1
Protocol: The resultant cell samples are respectively referred to as “Nos. 1141-1145”. No. 1140 was cultured in the absence of any inhibitor. Nos. 1141-1145 were cultured in the presence of the following inhibitors, respectively. No. 1141: […] Cat. No. 2939) No. 1142: […] MERCK Calbiochem; Cat. […] MERCK Calbiochem; Cat. […] Cayman; Cat. No. 13031) No. 1145: […] Cayman; Cat. No. 13341). […] Seven days after the seeding, the cells were lysed in 1 mL/well of a QIAzol reagent to prepare the total RNA from the cell lysate using the miRNeasy Mini Kit (Qiagen). The total RNA was subjected to quantitative RT-PCR using the iScript Advanced cDNA synthesis kit, the SsoAdvanced SYBR Green Supremix ([…]), and the CFX96 Real-Time System C1000 Thermal Cycler, all manufactured by Bio-Rad.

[2] = tested on: human induced hepatic stem cells AFB1-1; test: Quantitative RT-PCR, differentiation with TGF-β signaling inhibitors (Example 12); type: cell-based; conditions: cell samples Nos. 1545-1549: 0.5 μM inhibitor in ReproStem (bFGF-free), no feeder cells, Matrigel, 13 days after seeding; for KRT7 expression ratio: No. 1543 taken as 1; for GAPDH expression Ct value: housekeeping gene
Protocol: The resultant cell samples are respectively referred to as “Nos. 1545-1549”. No. 1544 was cultured in the absence of any inhibitor. Nos. 1545-1549 were cultured in the presence of the following inhibitors, respectively.
Thirteen days after the seeding, the cells were lysed in 1 mL/well of a QIAzol reagent to prepare the total RNA from the cell lysate using the miRNeasy Mini Kit (Qiagen). The total RNA was subjected to quantitative RT-PCR using the iScript Advanced cDNA synthesis kit, the SsoAdvanced SYBR Green Supremix ([…]), and the CFX96 Real-Time System C1000 Thermal Cycler, all manufactured by Bio-Rad. The quantified genes were ALB, AAT, TTR, AFP, cytokeratin 7 (KRT7), cytokeratin 19 (KRT19), and DLK1 (Delta-like 1 homolog).

[3] = tested on: human induced hepatic stem cells AFB1-1; test: Quantitative RT-PCR of marker genes, hepatic differentiation on Matrigel (Examples 2-4); type: cell-based; conditions: cell sample No. 391: aFGF 10 ng/mL/ReproStem (bFGF-free), no feeder cells, 13 days, No. 377 taken as 1
[4] = tested on: human induced hepatic stem cells AFB1-1; test: AFP in culture supernatant, hepatic differentiation on Matrigel (Examples 2-4); conditions: cell sample No. 391: aFGF 10 ng/mL/ReproStem (bFGF-free), no feeder cells, 13 days after seeding

| Compound | AAT expression ratio [1] | AFP expression ratio [1] | ALB expression ratio [1] | TTR expression ratio [1] | AAT expression Ct value [2] | AFP expression Ct value [2] | ALB expression Ct value [2] | DLK1 expression Ct value [2] | KRT7 expression Ct value [2] | KRT19 expression Ct value [2] | TTR expression Ct value [2] | KRT7 expression ratio [2] | GAPDH expression Ct value [2] | further results |
| --- | --- | --- | --- | --- | --- | --- | --- | --- | --- | --- | --- | --- | --- | --- |
| c1ccc(-c2n[nH]cc2-c2ccnc3ccccc23)nc1 [LY-364947, 4-[3-(2-pyridinyl)-1H-pyrazol-4-yl]-quinoline] | 14.36 | 369.23 | 114.78 | 482.45 |  |  |  |  |  |  |  |  |  |  |
| NC(=O)c1ccc(-c2nc(-c3ccc4c(c3)OCO4)c(-c3ccccn3)[nH]2)cc1 [SB431542, 4-[4-(1,3-benzodioxol-5-yl)-5-pyridin-2-yl-1H-imidazol-2-yl]benzamide] | 12.15 | 394.40 | 94.46 | 614.17 |  |  |  |  |  |  |  |  |  |  |
| Cc1cccc(-c2[nH]c(C(C)(C)C)nc2-c2ccc3c(c2)OCO3)n1.Cl [SB-505124, 2-(5-benzo[1,3]dioxol-5-yl-2-tert-butyl-3H-imidazol-4-yl)-6-methylpyridine hydrochloride hydrate] |  |  |  |  | 23.56 | 18.61 | 23.2 | 18.77 | 19.8 | 20.33 | 17.24 | 2768 | 13.25 |  |
| Cc1cccc(-c2n[nH]cc2-c2ccc3ncccc3n2)n1 [compound 616451, 3-(pyridin-2-yl)-4-(4-quinonyl)-1H-pyrazole] | 13.45 | 747.65 | 163.71 | 966.14 |  |  |  |  |  |  |  |  |  |  |
| Cc1cccc(-c2n[nH]cc2-c2ccc3ncccc3n2)n1 [compound 616452, 2-(3-(6-methylpyridin-2-yl)-1H-pyrazol-4-yl)-1,5-naphthyridine] | 22.18 | 720.03 | 296.67 | 1,262.14 |  |  |  |  |  |  |  |  |  |  |
| Cc1cccc(-c2nc(C(C)(C)C)[nH]c2-c2ccc3c(c2)OCO3)n1 [compound 616453, HCl] |  |  |  |  | 24.09 | 20.24 | 25.55 | 18.74 | 19.45 | 20.29 | 18.13 | 4761 | 13.76 |  |
| Fc1ccc(Cl)cc1-c1nc(Nc2ccncc2)c2nccnc2n1 [compound 616456] |  |  |  |  | 23.54 | 17.48 | 21.35 | 19.1 | 20.05 | 20.45 | 17.4 | 3186 | 13.72 |  |
| Cc1cccc(-c2[nH]c(C(C)(C)C)nc2-c2ccc3nccnc3c2)n1 [compound 616459, 6-(2-tert-butyl-5-(6-methyl-pyridin-2-yl)-1H-imidazol-4-yl)-quinoxaline] |  |  |  |  | 23.54 | 19.25 | 24.67 | 18.66 | 19.89 | 20.36 | 17.24 | 4905 | 14.24 |  |
| aFGF: aFGF, 10 ng/mL supplement of bFGF-free ReproStem medium (cell sample No. 391) |  |  |  |  |  |  |  |  |  |  |  |  |  | AAT expression level [3]: 220; AFP expression level [3]: 3,420; ALB expression level [3]: 3,172; DLK1 expression level [3]: 786; TTR expression level [3]: 3,910; α-fetoprotein (AFP) in culture supernatant [4]: 3,300 ng/mL |
